Converted amounts (≈) assume the structure as drawn. “And” between values parts separate entries of the source, which are not always exact repeats. Identical values can stand only once.
Assays:
[1] = system: PCA (homologous passive cutaneous anaphylaxis) in rat; assay: Inhibitory activity against PCA in rat; format: in vivo, rat (male Slc: Wistar); conditions: Rattus norvegicus; 5 mg/kg oral, 1 hour before antigen challenge; read-out: Inhibition rate against PCA
Experimental: An anti-dinitrophenylated-ovalbumin (hereinafter referred to as "anti-DNP-OVA") rat antiserum having 800 of PCA titer in homologous passive cutaneous anaphylaxis reaction in rats for 48 hours, was diluted 200 times with physiological saline, and diluted antiserum was injected intradermally into back of groups of 5 male Slc: Wistar rats weighing 130-150 g in a volume of 50 μl/site to be passively sensitized. After 48 hours, 0.6 ml of 1% (w/v) Evans blue solution containing 1.5 mg of antigen DNP-OVA was administered intravenously into the tail. Thirty minutes later, the rats were bled to death and skin of the rats was removed. According to the method of Katayama et al [Microbiol. […] The test compound was suspended in 0.5% (w/v) aqueous solution of carboxymethylcellulose (hereinafter referred to as "CMC"), the suspension was administered orally in a ratio of 5 mg/kg 1 hour before challenging an antigen.
Inhibition rate against PCA was calculated according to the following equation. [formula] M: Amount of leaked pigment in antibody-sensitized site under administration of CMC without the test compound
S: Amount of leaked pigment in antibody-sensitized site under administration of the test compound in CMC
B: Amount of leaked pigment in antibody-nonsensitized site

[2] = system: carrageenin edema in a foot-pad of rat; assay: Effect on carrageenin edema in a foot-pad of rat; format: in vivo, rat (male Wister); conditions: 50 mg/kg p.o., 4 hours after carrageenin
Experimental: The test was carried out according to the modified method on a method of Winter et al [Proc. Soc. Exp. Biol Med., 111, 544-547 (1962)]. Five male Wister rats weighing 148 to 162 g which were subjected to fasting for 24 hours were used as one group.
The test compound was suspended in 0.5% aqueous solution of CMC, and the suspension was administered orally in a amount of 50 mg/kg. After 60 minutes, 0.1 ml of 1% carrageenin solution in physiological saline was injected subcutaneously into the foot-pad of the left hind foot. Four hours after the injection of carrageenin, the volume of the foot-pad was measured by the apparatus for measurement of foot-pad volume in rat (commercially available from Ugobasile).
Swelling volume was calculated from the difference between a volume of foot-pad before inflaming the foot-pad, i.e. normal volume and that after inflaming it. Effect of a test compound was expressed as inhibition rate against swelling by calculating percentage in comparison with the 0.5% CMC administration group.
Indomethacin (commercially available from Merck Co.) was used as a positive comparative drug.

[3] = system: histamine release from rat mast cell; assay: Inhibitory activity against histamine release from rat mast cell; format: cell-based; conditions: 10 μg/ml, read-out: Inhibitory rate against histamine release
[4] = system: smooth musculus trachealis; assay: Relaxant activity of smooth musculus trachealis in guinea pig; set-up: species or system guinea pig (male Hartley); conditions: Cavia porcellus; tracheal chain strips, 37° C.; read-out: Concentration for 50% relaxation
Experimental: Male Hartley guinea pigs weighing 350 to 550 g were bleed to death, and immediately the tracheae were extirpated. According to the method of Takagi et al [cf. Chem. Pharm. Bull., 8, 716 (1958)], tracheal chain strips was prepared, and the sample was suspended on Magnus apparatus under addition of load of 0.5 g. The test was carried out at 37° C. of liquid temperature. After position of tonus was examined with histamine (10^-6 g/ml) and isoproterenol (10^-7 g/ml), the test compound dissolved in a mixture of dimethyl sulfoxide and physiological saline was added thereto, and the test compound was investigated with respect to the effect on smooth musculus trachealis. Theophylline was used as a positive comparative drug. The relaxation and the contraction of smooth musculus trachealis were recorded on servocorder (SR 6342: commercially available from Watanabe Instruments Corp.) by connecting Isotonic Transducer (TD-1125: commercially available from Nihon Kohden Kogyo Co., Ltd.) to a balancing box.

In the case of CC(C)c1cccc2n(Cc3ccc(F)cc3)c(=O)c(-c3nnn[nH]3)c-2c1 [Example 9, 1-(4-Fluorobenzyl)-5-iso-propyl-3-(5-tetrazolyl)-1-azaazulane-2-one], the inhibition in vivo at 5 mg/kg [1] is reported as 84.9 ± 2.2%, the “Swelling volume 4 hours after inflaming, mean ± standard error” value [2] is reported as 0.55 mL and 0.55 ± 0.032 mL and the “Inhibition rate against swelling” value ([2]; vs 0.5% CMC group) is reported as 38.9%. It also gave an inhibition at 10 µg/mL [3] of 99.8% and an EC50 [4] of 8.6 µg/mL (≈ 23.7 µM).

From patent publication USRE34918E, “Azaazulene compounds which are useful as antiallergic and antiinflammatory agents” (Kaken Pharmaceutical Co., Ltd., priority 1988, dated 1995)
